Test results reported in patent US20240409585A1, “MACROCYCLIC IMMUNOMODULATORS” (priority 2021, published 2024).
Like-named read-outs stand apart in the source and are kept apart here. Numbered stars: 1 amine (or outer) side, 2 acyl side, 3 side chain; on linkers, the order of the positions; unused ones are H or OH. Bridge positions count the residues as written; N and C are the ends. Square brackets hold non-standard residues; d marks the D form. Peptide text beside a SMILES is read from it. * marks the point of attachment. ξ: configuration not given here. Bip(4'-COOH) = N[C@@H](Cc1ccc(-c2ccc(C(=O)O)cc2)cc1)C(=O)O; Bip(4'-NHAc) = CC(=O)Nc1ccc(-c2ccc(C[C@H](N)C(=O)O)cc2)cc1; X12 = O=C(NCc1cccc(C[C@H](N[*:1])C(=O)[*:2])c1)c1ccncc1; X38 = O=C([C@H](CCCn1cc(-c2ccccc2)nn1)N[*:1])[*:2]; Phe(3-CF3) = N[C@@H](Cc1cccc(C(F)(F)F)c1)C(=O)O; Ala(morpholin-4-yl) = N[C@@H](CN1CCOCC1)C(=O)O; Phe(3-COOH) = N[C@@H](Cc1cccc(C(=O)O)c1)C(=O)O; Phe(4-COOH) = N[C@@H](Cc1ccc(C(=O)O)cc1)C(=O)O; Bpa = N[C@@H](Cc1ccc(C(=O)c2ccccc2)cc1)C(=O)O; Bip = N[C@@H](Cc1ccc(-c2ccccc2)cc1)C(=O)O; Phe(3-CN) = N#Cc1cccc(C[C@H](N)C(=O)O)c1; Phe(3-I) = N[C@@H](Cc1cccc(I)c1)C(=O)O; Phe(3-Me) = Cc1cccc(C[C@H](N)C(=O)O)c1; Val(3-OH) = CC(C)(O)[C@H](N)C(=O)O; hPhe = N[C@@H](CCc1ccccc1)C(=O)O; Cha = N[C@@H](CC1CCCCC1)C(=O)O; Carboxymethyl = O=C(O)C*; NMeA = CN[C@@H](C)C(=O)O; Orn = NCCC[C@H](N)C(=O)O; Dab = NCC[C@H](N)C(=O)O; ξC = NC(CS)C(=O)O

How the values were obtained:
[1] = molecular target: T1, PE-labeled human PD-L1-Ig binding to Jurkat cell line over-expressing human PD-1 (Jurkat-PD-1) (Homo sapiens, UniProt Q15116); assay: Jurkat-PD-1 Cell Binding High-Content Screening Assay (CBA): Method 1; conditions: Jurkat-PD-1 cells, PE-labeled PD-L1-Ig
T1 construct: expressed in transfected cells; host or cells: Jurkat

[2] = molecular target: T1, PE-labeled human PD-L1-Ig binding to Jurkat cell line over-expressing human PD-1 (Jurkat-PD-1); assay: Jurkat-PD-1 Cell Binding High-Content Screening Assay (CBA): Method 2 (presence and absence of tween-20); conditions: Jurkat-PD-1 cells, PE-labeled PD-L1-Ig 20 nM, presence or absence of tween-20 not given
Description: Jurkat-PD-1 Cell Binding High-Content Screening Assay (CBA): Method 2
Phycoerythrin (PE) was covalently linked to the Ig epitope tag of human PD-L1-Ig and fluorescently labeled PD-L1-Ig was used for binding studies with a Jurkat cell line over-expressing human PD-1 (Jurkat-PD-1). […] 100 nl of compound was added to cells followed by incubation at 37° C. for 2 hours. To interrogate potential issues with compound aggregation, compounds were tested in the presence and absence of tween-20 detergent. […] Then, 5 μl of PE-labeled PD-L1-Ig (20 nM final), diluted in DMEM supplemented with 10% fetal calf serum. […] Data was collected and processed using a Cell Insight NXT High Content Imager and associated software.

[3] = molecular target: T2, Alexa fluor-647 labeled human PD-L1-Ig binding to Jurkat cell line over-expressing human PD-1 (Homo sapiens, UniProt Q15116); assay: Jurkat-PD-1 Cell Binding High-Content Screening Assay (CBA): Method 3 (Alexa fluor-647 labeled PD-L1-Ig); conditions: Jurkat-PD-1 cells, Alexa fluor-647 labeled PD-L1-Ig 177 nM
T2 construct: expressed in transfected cells; host or cells: Jurkat
Procedure, shortened: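 Readout by high-content imaging of PFA-fixed, Hoechst-stained cells after 1 h with 177 nM (final) Alexa fluor-647 PD-L1-Ig. Compound was added first to hPD-1 Jurkat cells in RPMI plus 10% FCS for 2 h at 37 °C.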

[4] = head μM, read-out: CBA Method 2 μM
[5] = head μM, read-out: CBA Method 3 μM

T1 sequence (Q15116 25-288): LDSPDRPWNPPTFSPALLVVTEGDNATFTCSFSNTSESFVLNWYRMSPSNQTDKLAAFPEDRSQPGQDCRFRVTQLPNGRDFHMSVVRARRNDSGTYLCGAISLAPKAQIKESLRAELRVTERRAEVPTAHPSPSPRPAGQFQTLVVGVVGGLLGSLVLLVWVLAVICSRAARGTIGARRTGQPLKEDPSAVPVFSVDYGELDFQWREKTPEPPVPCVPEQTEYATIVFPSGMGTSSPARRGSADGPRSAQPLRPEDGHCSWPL
T2 sequence (Q15116 25-288): as above

Row | IC50 ([1]; μM, read-out: CBA Method 1 μM) | IC50 [2, 4] | SMILES | further results
1 | 210 nM | 310 nM | Cc1cccc(C[C@@H]2NC(=O)[C@H](CC(=O)O)NC(=O)[C@H](Cc3ccc(OCC(=O)O)cc3)NC(=O)[C@H](CN3CCOCC3)NC(=O)CSC[C@@H](C(=O)N[C@@H](CCN)C(N)=O)NC(=O)[C@H](CCCN)NC(=O)[C@H](C(C)C)NC(=O)[C@H](CCc3ccccc3)NC(=O)[C@H](CCN)NC(=O)[C@@H](CC(C)C)NC(=O)[C@H](C)N(C)C(=O)[C@H](CCC(N)=O)NC(=O)[C@H](Cc3ccc(-c4ccccc4)cc3)NC(=O)[C@H](Cc3ccc(C(=O)O)cc3)NC2=O)c1 [Example 5015] ({CH2CO}-[Ala(morpholin-4-yl)]Y(Carboxymethyl)D[Phe(3-Me)][Phe(4-COOH)][Bip]Q[NMeA][dL][Dab][hPhe]V[Orn]C[Dab]-NH2; thioether N-14) | 
2 | 310 nM | 560 nM | CC(C)C[C@@H]1NC(=O)[C@H](Cc2c[nH]c3ccccc23)NC(=O)[C@H](CC(N)=O)NC(=O)[C@H](Cc2ccc(O)cc2)NC(=O)[C@H](Cc2ccccc2)NC(=O)CSC[C@@H](C(=O)NCC(N)=O)NC(=O)[C@H](CO)NC(=O)[C@H](C(C)C)NC(=O)[C@H](CC(C)C)NC(=O)[C@H](CC(N)=O)NC(=O)[C@@H](CC(C)C)NC(=O)[C@H](C)N(C)C(=O)[C@H](C(C)C)NC(=O)[C@H](Cc2ccc(-c3ccccc3)cc2)NC1=O [Example 5025] ({CH2CO}-FYNWL[Bip]V[NMeA][dL]NLVSCG-NH2; thioether N-14) | 
3 | 120 nM | 120 nM | CC(C)C[C@@H]1NC(=O)[C@H](Cc2c[nH]c3ccccc23)NC(=O)[C@H](CC(N)=O)NC(=O)[C@H](Cc2cccc(C(=O)O)c2)NC(=O)[C@H](Cc2ccccc2)NC(=O)CSC[C@@H](C(=O)NCC(N)=O)NC(=O)[C@H](CO)NC(=O)[C@H](C(C)C)NC(=O)[C@H](CC(C)C)NC(=O)[C@H](CC(N)=O)NC(=O)[C@@H](CC(C)C)NC(=O)[C@H](C)N(C)C(=O)[C@H](C(C)C)NC(=O)[C@H](Cc2ccc(-c3ccccc3)cc2)NC1=O [Example 5026] ({CH2CO}-F[Phe(3-COOH)]NWL[Bip]V[NMeA][dL]NLVSCG-NH2; thioether N-14) | 
4 | 4.7 nM | 4.3 nM | Cc1cccc(C[C@@H]2NC(=O)[C@H](CC(=O)O)NC(=O)[C@H](Cc3ccc(OCC(=O)O)cc3)NC(=O)[C@H](CN3CCOCC3)NC(=O)CSC[C@@H](C(=O)N[C@@H](CCN)C(N)=O)NC(=O)[C@H](CCCN)NC(=O)[C@H](C(C)C)NC(=O)[C@H](CC3CCCCC3)NC(=O)[C@H](CCN)NC(=O)[C@@H](CC(C)C)NC(=O)[C@H](C)N(C)C(=O)[C@H](CCC(N)=O)NC(=O)[C@H](Cc3ccc(-c4ccccc4)cc3)NC(=O)[C@H](Cc3cccc(C#N)c3)NC2=O)c1 [Example 5030] ({CH2CO}-[Ala(morpholin-4-yl)]Y(Carboxymethyl)D[Phe(3-Me)][Phe(3-CN)][Bip]Q[NMeA][dL][Dab][Cha]V[Orn]C[Dab]-NH2; thioether N-14) | 
5 | 8.7 nM | 6.8 nM | Cc1cccc(C[C@@H]2NC(=O)[C@H](CC(=O)O)NC(=O)[C@H](Cc3ccc(OCC(=O)O)cc3)NC(=O)[C@H](CN3CCOCC3)NC(=O)CSCC(C(=O)N[C@@H](CCN)C(N)=O)NC(=O)[C@H](CCCN)NC(=O)[C@H](C(C)C)NC(=O)[C@H](CC3CCCCC3)NC(=O)[C@H](CCN)NC(=O)[C@@H](CC(C)C)NC(=O)[C@H](C)N(C)C(=O)[C@H](CCC(N)=O)NC(=O)[C@H](Cc3ccc(-c4ccccc4)cc3)NC(=O)[C@H](Cc3ccc(C(=O)c4ccccc4)cc3)NC2=O)c1 (stereo partly drawn) [Example 5031] ({CH2CO}-[Ala(morpholin-4-yl)]Y(Carboxymethyl)D[Phe(3-Me)][Bpa][Bip]Q[NMeA][dL][Dab][Cha]V[Orn][ξC][Dab]-NH2; thioether N-14) | 

Continued, compound first:

Row | SMILES | IC50 ([1]; μM, read-out: CBA Method 1 μM) | IC50 [2, 4] | further results
6 | CC(C)C[C@H]1NC(=O)[C@H](C)N(C)C(=O)[C@H](CCC(N)=O)NC(=O)[C@H](Cc2ccc(-c3ccccc3)cc2)NC(=O)[C@H](Cc2ccc(C(=O)O)cc2)NC(=O)[C@H](Cc2cccc(C(F)(F)F)c2)NC(=O)[C@H](CC(=O)O)NC(=O)[C@H](Cc2ccc(OCC(=O)O)cc2)NC(=O)[C@H](CN2CCOCC2)NC(=O)CSC[C@@H](C(=O)N[C@@H](CCN)C(N)=O)NC(=O)[C@H](CCCN)NC(=O)[C@H](C(C)C)NC(=O)[C@H](CC2CCCCC2)NC(=O)[C@H](CCN)NC1=O [Example 5013] ({CH2CO}-[Ala(morpholin-4-yl)]Y(Carboxymethyl)D[Phe(3-CF3)][Phe(4-COOH)][Bip]Q[NMeA][dL][Dab][Cha]V[Orn]C[Dab]-NH2; thioether N-14) |  |  | IC50 ([1]; nM, read-out: CBA Method 1): 11 nM; IC50 ([2]; nM, read-out: CBA Method 2): 4 nM
7 | CC(C)C[C@H]1NC(=O)[C@H](C)N(C)C(=O)[C@H](CCC(N)=O)NC(=O)[C@H](Cc2ccc(-c3ccccc3)cc2)NC(=O)[C@H](Cc2ccc(C(=O)O)cc2)NC(=O)[C@H](Cc2cccc(C(F)(F)F)c2)NC(=O)[C@H](CC(=O)O)NC(=O)[C@H](Cc2ccc(OCC(=O)O)cc2)NC(=O)[C@H](CN2CCOCC2)NC(=O)CSC[C@@H](C(=O)N[C@@H](CCN)C(N)=O)NC(=O)[C@H](CCCN)NC(=O)[C@H](C(C)C)NC(=O)[C@H](CC2CCCCC2)NC(=O)[C@H](CCN)NC1=O [Example 5014] ({CH2CO}-[Ala(morpholin-4-yl)]Y(Carboxymethyl)D[Phe(3-CF3)][Phe(4-COOH)][Bip]Q[NMeA][dL][Dab][Cha]V[Orn]C[Dab]-NH2; thioether N-14) | 170 nM | 40 nM | 
8 | CC(C)C[C@H]1NC(=O)[C@H](C)N(C)C(=O)[C@H](CCC(N)=O)NC(=O)[C@H](Cc2ccc(-c3ccccc3)cc2)NC(=O)[C@H](Cc2cccc(CNC(=O)c3ccncc3)c2)NC(=O)[C@H](Cc2cccc(I)c2)NC(=O)[C@H](CC(=O)O)NC(=O)[C@H](Cc2ccc(OCC(=O)O)cc2)NC(=O)[C@H](CN2CCOCC2)NC(=O)CSC[C@@H](C(=O)N[C@@H](CCN)C(N)=O)NC(=O)[C@H](CCCN)NC(=O)[C@H](C(C)C)NC(=O)[C@H](CC2CCCCC2)NC(=O)[C@H](CCN)NC1=O [Example 5020] ({CH2CO}-[Ala(morpholin-4-yl)]Y(Carboxymethyl)D[Phe(3-I)][X12][Bip]Q[NMeA][dL][Dab][Cha]V[Orn]C[Dab]-NH2; thioether N-14) |  |  | IC50 ([1]; nM, read-out: CBA Method 1): 5.8 nM; IC50 ([2]; nM, read-out: CBA Method 2): 5 nM
9 | CC(C)C[C@H]1NC(=O)[C@H](C)N(C)C(=O)[C@H](CCC(N)=O)NC(=O)[C@H](Cc2ccc(-c3ccccc3)cc2)NC(=O)[C@H](CCc2ccccc2)NC(=O)[C@H](Cc2cccc(C(F)(F)F)c2)NC(=O)[C@H](CC(=O)N[C@@H](CC(=O)O)C(=O)O)NC(=O)[C@H](Cc2ccc(OCC(=O)O)cc2)NC(=O)[C@H](CN2CCOCC2)NC(=O)CSC[C@@H](C(=O)N[C@@H](CCN)C(N)=O)NC(=O)[C@H](CCCN)NC(=O)[C@H](C(C)C)NC(=O)[C@H](CC2CCCCC2)NC(=O)[C@H](CCN)NC1=O [Example 5294] ({CH2CO}-[Ala(morpholin-4-yl)]Y(Carboxymethyl)D(Asp)[Phe(3-CF3)][hPhe][Bip]Q[NMeA][dL][Dab][Cha]V[Orn]C[Dab]-NH2; thioether N-14) |  |  | IC50 [3, 5]: 0.04 µM
10 | CC(=O)Nc1ccc(-c2ccc(C[C@@H]3NC(=O)[C@H](Cc4cccc(C)c4)NC(=O)[C@H](CC(=O)O)NC(=O)[C@H](CCCn4cc(-c5ccccc5)nn4)NC(=O)[C@H](CN4CCOCC4)NC(=O)CSC[C@@H](C(=O)N[C@@H](CCN)C(N)=O)NC(=O)[C@H](CCC(N)=O)NC(=O)[C@H](C(C)C)NC(=O)[C@H](CC4CCCCC4)NC(=O)[C@H](CCN)NC(=O)[C@@H](CC(C)C)NC(=O)[C@H](C)N(C)C(=O)[C@H](Cc4ccc(C(=O)O)cc4)NC(=O)[C@H](Cc4ccc(-c5ccccc5)cc4)NC3=O)cc2)cc1 [Example 5295] ({CH2CO}-[Ala(morpholin-4-yl)][X38]D[Phe(3-Me)][Bip(4'-NHAc)][Bip][Phe(4-COOH)][NMeA][dL][Dab][Cha]VQC[Dab]-NH2; thioether N-14) |  |  | IC50 ([3]; nM, read-out: CBA Method 3): 0.0016 µM
11 | CC(=O)Nc1ccc(-c2ccc(C[C@@H]3NC(=O)[C@H](Cc4cccc(C(F)(F)F)c4)NC(=O)[C@H](CC(=O)O)NC(=O)[C@H](Cc4ccc(-c5ccc(C(=O)O)cc5)cc4)NC(=O)[C@H](CN4CCOCC4)NC(=O)CSC[C@@H](C(=O)N[C@@H](CCN)C(N)=O)NC(=O)[C@H](CCC(N)=O)NC(=O)[C@H](C(C)(C)O)NC(=O)[C@H](CC4CCCCC4)NC(=O)[C@H](CCN)NC(=O)[C@@H](CC(C)C)NC(=O)[C@H](C)N(C)C(=O)[C@H](Cc4ccc(C(=O)O)cc4)NC(=O)[C@H](Cc4ccc(-c5ccccc5)cc4)NC3=O)cc2)cc1 [Example 5296] ({CH2CO}-[Ala(morpholin-4-yl)][Bip(4'-COOH)]D[Phe(3-CF3)][Bip(4'-NHAc)][Bip][Phe(4-COOH)][NMeA][dL][Dab][Cha][Val(3-OH)]QC[Dab]-NH2; thioether N-14) |  |  | IC50 [3, 5]: 0.02 µM
